From patent US5103018A, “Mitomycin derivatives” (Kyowa Hakko Kogyo Kabushiki Kaisha, priority 1986, dated 1992) come the findings set out here.

Series [1] has as its system Streptococcus faecalis ATCC 10541. Nature of the series: Minimum inhibitory concentration, agar dilution method, SF. The conditions noted are these: Enterococcus faecalis, ATCC10541, pH 7, read-out: minimum inhibitory concentration, SF. The series is classed as cell-based. An excerpt: (§1) Certain Compounds I were selected. Table 3 indicates their anti-bacterial activities in terms of their minimum inhibitory concentration (μg/ml), determined by the agar dilution method effected at a pH of 7.0. In this table, the microorganisms used are abbreviated as follows:
SF: Streptococcus faecalis ATCC 10541
Background: In agar dilution the substance is mixed into plates at graded concentrations.

Series [2] relates to Staphylococcus aureus ATCC 6583P. Description: Minimum inhibitory concentration, agar dilution method, SA. The series is classed as cell-based. The conditions noted are these: Staphylococcus aureus, ATCC6583P, pH 7, read-out: minimum inhibitory concentration, SA.
Description: as §1
SA: Staphylococcus aureus ATCC 6583P

The subject of series [3] is Escherichia coli ATCC 26. Nature of the series: Minimum inhibitory concentration, agar dilution method, EC. Format: cell-based. The conditions noted are these: Escherichia coli, ATCC26, pH 7, read-out: minimum inhibitory concentration, EC.
Description: as §1
EC: Escherichia coli ATCC 26

Series [4] concerns Proteus vulgaris ATCC 6897. Nature of the series: Minimum inhibitory concentration, agar dilution method, PV. Format: cell-based. The conditions noted are these: Proteus vulgaris, ATCC6897, pH 7, read-out: minimum inhibitory concentration, PV.
Description: as §1
PV: Proteus vulgaris ATCC 6897

Series [5] has as its system Klebsiella pneumoniae ATCC 10031. Description: microbe, parasite or virus in culture. Format: cell-based. The conditions noted are these: ATCC10031, pH 7, read-out: minimum inhibitory concentration, KP. An excerpt: Certain Compounds I were selected. […] In this table, the microorganisms used are abbreviated as follows:
KP: Klebsiella pneumoniae ATCC 10031

The subject of series [6] is Sarcoma 180 solid tumour. Nature of the series: animal or person. The conditions noted are these: Mus musculus, Sarcoma-180, ip, 168 h, read-out: ED50 ip. The series is classed as in vivo, mice (ddy strain).
A short description of series [7]: Acute toxicity. The series is classed as in vivo, mice (ddy). The conditions noted are these: mouse, in vivo, ip. How it is done:
(§2) Certain compounds were selected from Compounds I. The following Table 4 indicates anti-tumour activity against Sarcoma 180 solid tumour (ED50), acute toxicity (LD50) and effects on the peripheral leucocytes (WBC4000) of each compound.
(§3) Each animal of the test group consisting of 5 ddy mice was once administered (i.p.) with a test compound. […] The LD50 was determined by Behren Korber's method.

In series [8] the test system is ddy mice. Description: Acute toxicity. Format: in vivo. The conditions noted are these: in comparison with mitomycin C. How it is done: as §2, §3
The nature of series [9]: in vivo. The series is classed as in vivo, mice (ddy strain). The conditions noted are these: mouse, in vivo, ip; read-out: (WBC4000/ED50)* = (WBC4000/ED50)/[(WBC4000/ED50) of MMC1]. The procedure, abridged:
(§4)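 Male ddy mice (20±2 g, 5 per group) implanted subcutaneously with 5×10^6 Sarcoma 180 cells and given compound intra-abdominally 24 hours later. Leucocytes counted in suborbital blood 4 days after dosing. WBC4000 is the dose giving […], read from a plot of count vs log dose.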

In series [10] the test system is peripheral leucocytes. Nature of the series: in vivo. Format: in vivo, mice (ddy strain). The conditions noted are these: in comparison with mitomycin C. The gist of the method: as §4
The test system of series [11] is P388 Leukemia. Nature of the series: Effect upon Leukemia P 388. Format: in vivo, mouse (CDF1). The conditions noted are these: dose 25 mg/kg, single i.p., 33 days. The procedure:
(5) Effect upon Leukemia P 388:
Ascites cells were collected from P388 Leukemia-carrying mouse (DBA/2) 7 days after the implantation. The number of the cells of P388 Leukemia in the sample was counted. A physiological solution of sodium chloride was sterilized and used to prepare a cell suspension containing 5×10^6 tumour cells per ml. On each occasion, 0.2 ml of the suspension containing 1×10^6 cells was implanted into the abdominal cavity of each mouse (CDF1; body weight 20~25 g). 24 hours after implantation, the test compound was once given to each mouse of a test group consisting of 6 mice by abdominal injection.
The activity of the test samples was determined by the ratio of the average survival days of the treated animals to the average survival days of untreated animals viz. ILS % (Increased Life Span).

Series [12] is described as follows: Solubility in water. Format: physicochemical.
Series [13] is described as follows: Equilibration between mitomycin-type and albomitomycin-type substance in aqueous solution. The conditions noted are these: aqueous solution (5 mg/ml), 25° C., 24 hours. The series is classed as physicochemical. How it is done: In the case wherein the compound of Example 1 described hereinafter was equilibrated by allowing to stand in an aqueous solution (5 mg/ml) at a temperature of 25° C. for 24 hours, the molar ratio of the albomitomycin-type substance was 8.5%.

In brackets after ≈: the same amount, converted by molar mass. Some results are limits rather than exact numbers.

In general, ED50 refers to the dose at which the effect has come halfway, by size or by number of responders. What is called LD50 is the dose expected to kill half of the subjects tested. In general, solubility refers to the concentration that dissolves in the medium under given conditions. Read a high solubility as much dissolved substance. `CO[C@@]12[C@H](COC(N)=O)C3=C(C(=O)C(C)=C(NCCSSCCNC(=O)CC[C@H](N)C(=O)O)C3=O)N1C[C@@H]1N[C@@H]12` [Compound 1, 7-N-[2-[[2-(N^5 -L-glutamino)ethyl]dithio]ethyl]mitomycin C]: the MIC in series [1] is 1.6 µg/mL (≈ 2.67 µM); in series [2], 0.8 µg/mL (≈ 1.34 µM); in series [3], greater than 50 µg/mL; in series [4], 0.8 µg/mL (≈ 1.34 µM); in series [5], 0.4 µg/mL (≈ 0.668 µM). The 50% effective dose (ED50) in series [6] is 2.7 mg/kg. The same molecule displayed an LD50 at 336 h in [7] (ddy mice, single i.p., 14 days, Behren Korber's method) of 22.5 mg/kg. For the same molecule, the results for the selectivity ratio in series [7] (read-out: (C.I.)* = (LD50/ED50)/[(LD50/ED50) of MMC1]) and in [9] were 2.58 and 4.12, respectively. Besides, in series [8], the “C.I. (LD50/ED50) (in words)” value is given as “very high”. Also, the “WBC4000/ED50 (in words)” value in series [10] was “very high”. Also, the “ILS* (ratio of ILS % to that of mitomycin C)” value in series [11] is greater than 2.30. Also, in [12], the “water-solubility (in words)” value is “good”. This molecule registered a solubility in series [12] (water) greater than 20 mg/mL. The “molar ratio of the albomitomycin-type substance at equilibrium” value in [13] came out at 8.5%.
